Source: ChEMBL document CHEMBL3425500, “Perspective: Tyrosine phosphatases as novel targets for antiplatelet therapy” (Bioorg Med Chem, 2015)

What was measured:
[1] = target: T1, Tyrosine-protein phosphatase non-receptor type 1 (Homo sapiens, UniProt P18031); assay: Competitive inhibition of PTP1B (unknown origin)
T1 sequence (P18031 whole entry): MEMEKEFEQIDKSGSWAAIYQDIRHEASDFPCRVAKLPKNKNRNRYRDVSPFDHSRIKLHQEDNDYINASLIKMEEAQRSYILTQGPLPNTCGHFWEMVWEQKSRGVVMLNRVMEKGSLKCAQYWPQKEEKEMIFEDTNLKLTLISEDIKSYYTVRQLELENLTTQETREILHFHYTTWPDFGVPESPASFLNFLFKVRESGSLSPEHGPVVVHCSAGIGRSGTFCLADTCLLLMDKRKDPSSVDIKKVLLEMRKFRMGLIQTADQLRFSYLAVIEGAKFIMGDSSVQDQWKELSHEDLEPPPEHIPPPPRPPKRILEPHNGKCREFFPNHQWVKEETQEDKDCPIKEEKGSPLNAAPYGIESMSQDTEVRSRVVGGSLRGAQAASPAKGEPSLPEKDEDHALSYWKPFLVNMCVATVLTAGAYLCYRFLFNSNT

[2] = target: T1, Tyrosine-protein phosphatase non-receptor type 1; assay: Inhibition of recombinant human PTP1B assessed as hydrolysis of DiFMUP preincubated for 10 mins followed by DiFMUP addition measured after 5 mins by fluorescence assay
[3] = target: T2, Tyrosine-protein phosphatase non-receptor type 2 (Homo sapiens, UniProt P17706); assay: Inhibition of recombinant TCPTP (unknown origin) using OMFP as substrate after 1 hr by fluorescence assay
T2 sequence (P17706 whole entry): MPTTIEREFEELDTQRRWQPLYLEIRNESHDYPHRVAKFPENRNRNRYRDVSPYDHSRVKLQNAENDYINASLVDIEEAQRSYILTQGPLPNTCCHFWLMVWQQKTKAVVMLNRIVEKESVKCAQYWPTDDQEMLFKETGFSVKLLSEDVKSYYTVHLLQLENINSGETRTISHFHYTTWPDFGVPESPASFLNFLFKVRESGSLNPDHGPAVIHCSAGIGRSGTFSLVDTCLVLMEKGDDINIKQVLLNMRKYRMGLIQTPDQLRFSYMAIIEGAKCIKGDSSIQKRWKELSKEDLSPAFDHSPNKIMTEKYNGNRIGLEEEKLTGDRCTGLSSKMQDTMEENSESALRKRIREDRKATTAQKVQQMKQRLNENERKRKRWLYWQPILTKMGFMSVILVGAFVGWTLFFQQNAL

[4] = target: T3, Tyrosine-protein phosphatase non-receptor type 5 (Homo sapiens, UniProt P54829); assay: Inhibition of recombinant STEP (unknown origin) using OMFP as substrate after 1 hr by fluorescence assay
T3 sequence (P54829 whole entry): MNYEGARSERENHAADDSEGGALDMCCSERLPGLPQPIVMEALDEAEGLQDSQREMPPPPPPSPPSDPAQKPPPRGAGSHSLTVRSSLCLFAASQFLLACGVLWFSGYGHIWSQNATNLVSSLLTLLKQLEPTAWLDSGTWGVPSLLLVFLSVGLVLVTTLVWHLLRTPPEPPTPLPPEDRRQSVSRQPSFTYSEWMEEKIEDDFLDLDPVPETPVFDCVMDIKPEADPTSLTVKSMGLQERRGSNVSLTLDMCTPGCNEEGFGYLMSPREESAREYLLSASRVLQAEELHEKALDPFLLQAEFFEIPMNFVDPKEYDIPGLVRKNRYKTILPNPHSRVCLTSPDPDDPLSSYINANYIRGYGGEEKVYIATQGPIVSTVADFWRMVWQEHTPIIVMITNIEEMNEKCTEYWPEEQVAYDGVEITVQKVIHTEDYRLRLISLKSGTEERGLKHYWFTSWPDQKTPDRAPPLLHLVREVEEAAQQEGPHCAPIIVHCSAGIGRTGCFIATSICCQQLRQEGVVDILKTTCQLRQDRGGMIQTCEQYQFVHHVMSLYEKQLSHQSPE

[5] = target: T4, Tyrosine-protein phosphatase non-receptor type 7 (Homo sapiens, UniProt P35236); assay: Inhibition of recombinant HePTP (unknown origin) using OMFP as substrate after 1 hr by fluorescence assay
T4 sequence (P35236 whole entry): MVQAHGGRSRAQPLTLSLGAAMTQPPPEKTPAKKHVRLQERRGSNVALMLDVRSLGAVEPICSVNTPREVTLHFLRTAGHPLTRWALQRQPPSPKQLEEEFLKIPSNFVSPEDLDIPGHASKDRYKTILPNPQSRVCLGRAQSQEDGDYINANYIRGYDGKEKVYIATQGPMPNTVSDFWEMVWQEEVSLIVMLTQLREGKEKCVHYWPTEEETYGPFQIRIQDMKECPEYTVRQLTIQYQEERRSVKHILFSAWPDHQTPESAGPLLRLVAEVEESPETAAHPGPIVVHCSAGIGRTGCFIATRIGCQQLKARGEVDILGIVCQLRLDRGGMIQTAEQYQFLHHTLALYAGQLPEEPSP

[6] = target: T5, Dual specificity protein phosphatase 6 (Homo sapiens, UniProt Q16828); assay: Inhibition of recombinant MKP3 (unknown origin) using OMFP as substrate after 1 hr by fluorescence assay
T5 sequence (Q16828 whole entry): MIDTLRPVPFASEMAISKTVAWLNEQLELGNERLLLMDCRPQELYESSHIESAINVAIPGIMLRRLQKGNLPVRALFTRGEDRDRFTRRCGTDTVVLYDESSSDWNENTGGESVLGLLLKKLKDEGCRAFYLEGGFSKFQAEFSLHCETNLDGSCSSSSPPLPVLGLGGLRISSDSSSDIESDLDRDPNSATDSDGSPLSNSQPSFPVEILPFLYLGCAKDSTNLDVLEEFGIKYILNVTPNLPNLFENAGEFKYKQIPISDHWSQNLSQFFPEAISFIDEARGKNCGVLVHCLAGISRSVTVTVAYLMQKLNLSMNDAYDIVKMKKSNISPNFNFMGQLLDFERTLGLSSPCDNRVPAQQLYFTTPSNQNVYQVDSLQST

[7] = target: T1, Tyrosine-protein phosphatase non-receptor type 1; assay: Inhibition of recombinant PTP1B (unknown origin) using OMFP as substrate after 1 hr by fluorescence assay
[8] = target: T6, Tyrosine-protein phosphatase non-receptor type 22 (Homo sapiens, UniProt Q9Y2R2); assay: Inhibition of recombinant LYP (unknown origin) using OMFP as substrate after 1 hr by fluorescence assay
T6 sequence (Q9Y2R2 whole entry): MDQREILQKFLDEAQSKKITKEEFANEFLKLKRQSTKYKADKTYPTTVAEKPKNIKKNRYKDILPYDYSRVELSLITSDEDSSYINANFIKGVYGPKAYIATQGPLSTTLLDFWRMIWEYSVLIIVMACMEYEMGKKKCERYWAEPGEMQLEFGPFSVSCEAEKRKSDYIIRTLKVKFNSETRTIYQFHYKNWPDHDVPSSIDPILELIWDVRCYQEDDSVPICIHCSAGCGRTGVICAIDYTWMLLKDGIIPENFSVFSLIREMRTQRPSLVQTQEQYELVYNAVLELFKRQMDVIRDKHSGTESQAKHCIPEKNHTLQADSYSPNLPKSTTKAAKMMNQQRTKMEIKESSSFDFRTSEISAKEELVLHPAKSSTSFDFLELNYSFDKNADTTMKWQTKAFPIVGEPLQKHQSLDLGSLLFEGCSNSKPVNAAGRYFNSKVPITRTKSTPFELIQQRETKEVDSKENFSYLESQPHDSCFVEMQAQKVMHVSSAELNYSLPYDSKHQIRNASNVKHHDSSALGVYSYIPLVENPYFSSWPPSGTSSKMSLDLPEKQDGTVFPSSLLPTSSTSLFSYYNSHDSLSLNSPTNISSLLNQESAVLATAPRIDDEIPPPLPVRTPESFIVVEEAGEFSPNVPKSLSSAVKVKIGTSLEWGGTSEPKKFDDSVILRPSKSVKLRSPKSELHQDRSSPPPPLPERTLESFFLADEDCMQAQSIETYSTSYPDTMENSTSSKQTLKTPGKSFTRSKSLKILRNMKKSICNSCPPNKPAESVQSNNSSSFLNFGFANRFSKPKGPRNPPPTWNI

[9] = target: T7, Receptor-type tyrosine-protein phosphatase C (Homo sapiens, UniProt P08575); assay: Inhibition of recombinant CD45 (unknown origin) using OMFP as substrate after 1 hr by fluorescence assay
T7 sequence (P08575 whole entry): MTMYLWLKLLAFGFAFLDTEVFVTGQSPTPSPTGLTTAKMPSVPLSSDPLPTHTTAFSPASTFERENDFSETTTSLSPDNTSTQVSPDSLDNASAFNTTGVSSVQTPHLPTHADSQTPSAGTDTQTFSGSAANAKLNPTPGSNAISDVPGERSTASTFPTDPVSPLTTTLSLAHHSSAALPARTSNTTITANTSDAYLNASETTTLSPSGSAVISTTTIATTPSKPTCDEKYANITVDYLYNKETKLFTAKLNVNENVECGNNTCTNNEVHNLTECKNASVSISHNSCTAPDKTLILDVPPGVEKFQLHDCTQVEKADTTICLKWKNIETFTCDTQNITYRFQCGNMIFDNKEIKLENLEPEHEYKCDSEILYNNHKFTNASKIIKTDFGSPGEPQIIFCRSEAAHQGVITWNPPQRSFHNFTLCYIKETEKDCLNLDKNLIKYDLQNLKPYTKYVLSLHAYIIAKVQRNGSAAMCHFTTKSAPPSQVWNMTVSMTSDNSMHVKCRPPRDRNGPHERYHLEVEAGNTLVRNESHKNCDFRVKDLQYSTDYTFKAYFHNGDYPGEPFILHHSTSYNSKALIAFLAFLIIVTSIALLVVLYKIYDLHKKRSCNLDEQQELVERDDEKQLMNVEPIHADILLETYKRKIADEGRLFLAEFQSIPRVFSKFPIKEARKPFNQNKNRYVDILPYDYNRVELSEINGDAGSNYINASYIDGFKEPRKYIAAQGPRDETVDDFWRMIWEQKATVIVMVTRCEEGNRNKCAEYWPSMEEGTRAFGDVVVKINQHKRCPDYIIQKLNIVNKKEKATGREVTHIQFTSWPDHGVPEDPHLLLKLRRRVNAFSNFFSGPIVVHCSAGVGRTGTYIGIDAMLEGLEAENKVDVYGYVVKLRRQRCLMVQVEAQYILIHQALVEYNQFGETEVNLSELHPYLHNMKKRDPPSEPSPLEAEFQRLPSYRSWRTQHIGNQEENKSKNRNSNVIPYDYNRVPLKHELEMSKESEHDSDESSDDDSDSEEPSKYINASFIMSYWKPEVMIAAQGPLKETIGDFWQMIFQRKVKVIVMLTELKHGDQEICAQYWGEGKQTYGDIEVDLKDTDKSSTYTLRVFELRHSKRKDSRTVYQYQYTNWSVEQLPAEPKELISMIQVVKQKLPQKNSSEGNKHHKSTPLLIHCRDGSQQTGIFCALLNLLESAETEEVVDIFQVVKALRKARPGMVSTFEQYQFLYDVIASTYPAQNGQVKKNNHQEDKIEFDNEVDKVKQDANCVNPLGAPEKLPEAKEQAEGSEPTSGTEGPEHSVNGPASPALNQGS

[10] = target: T8, Dual specificity protein phosphatase 22 (Homo sapiens, UniProt Q9NRW4); assay: Inhibition of recombinant VHX (unknown origin) using OMFP as substrate after 1 hr by fluorescence assay
T8 sequence (Q9NRW4 whole entry): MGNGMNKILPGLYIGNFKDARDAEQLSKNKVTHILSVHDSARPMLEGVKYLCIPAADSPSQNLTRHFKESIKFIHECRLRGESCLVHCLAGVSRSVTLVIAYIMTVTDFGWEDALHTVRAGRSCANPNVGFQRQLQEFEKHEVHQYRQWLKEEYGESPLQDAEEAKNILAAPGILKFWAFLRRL

[11] = target: T9, Receptor-type tyrosine-protein phosphatase R (Homo sapiens, UniProt Q15256); assay: Inhibition of recombinant PTP-SL (unknown origin) using OMFP as substrate after 1 hr by fluorescence assay
T9 sequence (Q15256 whole entry): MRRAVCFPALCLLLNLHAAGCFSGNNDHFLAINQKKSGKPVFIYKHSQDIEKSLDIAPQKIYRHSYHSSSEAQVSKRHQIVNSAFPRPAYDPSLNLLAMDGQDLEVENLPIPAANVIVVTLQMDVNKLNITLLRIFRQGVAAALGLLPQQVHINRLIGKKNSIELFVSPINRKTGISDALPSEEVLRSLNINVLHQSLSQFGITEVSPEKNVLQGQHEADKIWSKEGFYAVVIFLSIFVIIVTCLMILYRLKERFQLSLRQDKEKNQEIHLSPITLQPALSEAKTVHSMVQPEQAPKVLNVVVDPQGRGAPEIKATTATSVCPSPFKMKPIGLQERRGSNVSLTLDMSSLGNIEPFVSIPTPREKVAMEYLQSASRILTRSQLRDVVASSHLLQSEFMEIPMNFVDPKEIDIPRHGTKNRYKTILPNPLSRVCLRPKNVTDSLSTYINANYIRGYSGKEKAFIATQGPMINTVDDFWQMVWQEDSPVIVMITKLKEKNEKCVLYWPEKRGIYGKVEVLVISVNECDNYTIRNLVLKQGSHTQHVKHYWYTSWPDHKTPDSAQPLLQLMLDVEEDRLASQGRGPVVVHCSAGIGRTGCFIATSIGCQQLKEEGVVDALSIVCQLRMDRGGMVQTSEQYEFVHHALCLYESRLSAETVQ

[12] = target: Receptor-type tyrosine-protein phosphatase F (Homo sapiens, UniProt P10586); assay: Inhibition of recombinant LAR (unknown origin) using OMFP as substrate after 1 hr by fluorescence assay
[13] = target: Dual specificity protein phosphatase 3 (Homo sapiens, UniProt P51452); assay: Inhibition of recombinant VHR (unknown origin) using OMFP as substrate after 1 hr by fluorescence assay
Dual specificity protein phosphatase 3, sequence (P51452 whole entry): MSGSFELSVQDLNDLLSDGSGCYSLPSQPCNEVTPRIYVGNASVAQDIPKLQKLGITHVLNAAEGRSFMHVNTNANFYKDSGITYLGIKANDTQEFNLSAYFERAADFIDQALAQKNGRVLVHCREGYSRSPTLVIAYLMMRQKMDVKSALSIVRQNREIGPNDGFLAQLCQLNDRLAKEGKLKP

Receptor-type tyrosine-protein phosphatase F, sequence (P10586 whole entry): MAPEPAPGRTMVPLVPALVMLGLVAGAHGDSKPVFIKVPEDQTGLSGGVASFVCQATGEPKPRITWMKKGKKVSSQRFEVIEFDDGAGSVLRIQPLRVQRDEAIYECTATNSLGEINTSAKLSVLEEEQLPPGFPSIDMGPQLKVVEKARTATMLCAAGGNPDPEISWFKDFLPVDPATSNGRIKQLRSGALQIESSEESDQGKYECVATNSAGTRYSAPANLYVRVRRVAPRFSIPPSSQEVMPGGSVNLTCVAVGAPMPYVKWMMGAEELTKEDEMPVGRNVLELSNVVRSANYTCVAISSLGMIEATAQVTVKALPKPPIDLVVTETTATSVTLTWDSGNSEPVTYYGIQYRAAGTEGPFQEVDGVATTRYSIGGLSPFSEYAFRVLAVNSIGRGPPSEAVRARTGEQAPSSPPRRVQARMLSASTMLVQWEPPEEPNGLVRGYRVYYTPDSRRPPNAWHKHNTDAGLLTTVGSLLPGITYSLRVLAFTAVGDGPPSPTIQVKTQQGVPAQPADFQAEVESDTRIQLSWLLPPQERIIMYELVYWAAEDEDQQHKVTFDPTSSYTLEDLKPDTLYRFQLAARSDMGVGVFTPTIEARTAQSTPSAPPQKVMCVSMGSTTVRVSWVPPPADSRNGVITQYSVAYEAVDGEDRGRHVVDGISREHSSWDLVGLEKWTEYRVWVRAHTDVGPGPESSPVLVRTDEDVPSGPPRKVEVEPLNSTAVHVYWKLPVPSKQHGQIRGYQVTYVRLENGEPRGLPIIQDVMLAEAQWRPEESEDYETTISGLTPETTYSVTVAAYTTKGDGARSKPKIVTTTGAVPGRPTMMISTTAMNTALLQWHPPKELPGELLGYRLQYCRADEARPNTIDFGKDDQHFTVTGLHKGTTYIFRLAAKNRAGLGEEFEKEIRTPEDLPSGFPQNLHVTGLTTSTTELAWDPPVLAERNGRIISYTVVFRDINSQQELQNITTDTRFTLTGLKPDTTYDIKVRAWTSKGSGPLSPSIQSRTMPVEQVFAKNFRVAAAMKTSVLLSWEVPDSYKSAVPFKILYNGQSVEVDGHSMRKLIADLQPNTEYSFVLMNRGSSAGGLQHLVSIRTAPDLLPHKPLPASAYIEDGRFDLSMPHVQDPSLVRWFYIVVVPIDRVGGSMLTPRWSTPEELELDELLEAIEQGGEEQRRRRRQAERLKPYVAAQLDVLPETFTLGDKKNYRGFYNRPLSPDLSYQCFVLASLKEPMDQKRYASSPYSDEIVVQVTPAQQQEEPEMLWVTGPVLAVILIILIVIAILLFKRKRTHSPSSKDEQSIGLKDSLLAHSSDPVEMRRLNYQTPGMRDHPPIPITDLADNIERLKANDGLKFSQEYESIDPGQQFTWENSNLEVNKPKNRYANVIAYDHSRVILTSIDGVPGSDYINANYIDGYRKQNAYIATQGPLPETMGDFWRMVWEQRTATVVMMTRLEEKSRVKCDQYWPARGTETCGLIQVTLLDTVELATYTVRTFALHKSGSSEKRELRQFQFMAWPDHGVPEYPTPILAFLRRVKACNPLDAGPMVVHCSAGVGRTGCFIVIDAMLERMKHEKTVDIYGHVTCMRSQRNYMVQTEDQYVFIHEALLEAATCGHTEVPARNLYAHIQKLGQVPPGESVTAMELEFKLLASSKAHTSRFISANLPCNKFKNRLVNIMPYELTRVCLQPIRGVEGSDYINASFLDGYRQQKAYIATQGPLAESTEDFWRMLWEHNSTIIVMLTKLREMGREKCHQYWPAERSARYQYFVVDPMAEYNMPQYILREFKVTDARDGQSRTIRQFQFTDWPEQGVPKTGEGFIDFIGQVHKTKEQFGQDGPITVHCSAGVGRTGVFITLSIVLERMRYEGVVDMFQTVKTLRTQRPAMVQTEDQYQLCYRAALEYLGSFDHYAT

CCCCCCCCCCCCCCC(=O)N[C@@H](Cc1ccc(C(F)(F)P(=O)(O)O)cc1)C(=O)N[C@@H](CC(=O)O)C(=O)N[C@@H](Cc1ccc(C(F)(F)P(=O)(O)O)cc1)C(N)=O
Ki [1]: 0.026 µM

CN1C(=O)/C(=C\c2ccc(OCc3ccc(C4CCCCC4)cc3)cc2)S/C1=N/c1ccc(CC(=O)O)cc1
IC50 [2]: 0.24 µM

COc1ccc(-c2nnc(Nc3nc4c(F)cccc4s3)o2)cc1
IC50 [3]: 55 µM | IC50 [4]: > 100 µM | IC50 [5]: 38 µM | IC50 [6]: > 100 µM | IC50 [7]: > 100 µM | IC50 [8]: 49 µM | IC50 [9]: > 100 µM | IC50 [10]: 26 µM | IC50 [11]: 13 µM | IC50 [12]: > 100 µM

COc1ccc(-c2nnc(Nc3nc4c(OC)cccc4s3)o2)cc1
IC50 [13]: 2.68 µM
